Results on seven compounds are retold here after patent US9181187B2, “Therapeutic agent for urinary excretion disorder” (ONO PHARMACEUTICAL CO., LTD., priority 2007, dated 2015).

One assay has as its target mouse EP1 receptor (Mus musculus (Mouse), UniProt P35375). Put plainly: Measurement of EP1 Antagonist Activity (inhibition of PGE2-induced increase in intracellular calcium). Format: cell-based. The note with it: cells expressing mouse EP1 receptor; increase in intracellular calcium induced by PGE2 (100 nM). The procedure:
The cells expressing mouse EP1 receptor were seeded at 10^4 cells/well in 96-well plates and cultured for 2 days with 10% Fetal Bovine Serum (FBS)/alpha Modified Eagle Medium (αMEM) in the incubator (37° C., 5% CO2). The cells were washed with phosphate buffer, and load buffer (10% FBS/αMEM containing Fura2/AM (5 μM), indomethacin (20 μM) and probenecid (2.5 mM)) was then added to each well and cells were left standing for 1 hour. Load buffer of each well was discarded and assay buffer (Hank's Balanced Salt Solution (HBSS) containing indomethacin (2.5 mM), probenecid (2.5 mM), HEPES-NaOH (10 mM) and 0.1% (w/v) Bovine Serum Albumin (BSA)) was added to each well and plates were left at room temperature in a dark room for 1 hour. Afterwards, compounds of the present invention (10 μL) or PGE2 (10 μL) prepared with assay buffer was added to each well and intracellular calcium concentrations were measured using a Fluorescence Drug Screening System (FDSS-4000, Hamamatsu Photonics K.K.). Changes in ratio of fluorescent intensity at 500 nm in cells exposed to alternating 2 excitation wavelengths was monitored as changes in intracellular calcium concentrations.
IC50 values were calculated based on the response inhibition rate of increase in intracellular calcium concentrations induced by PGE2 (100 nM) and was used as an index of EP1 antagonistic activity.
For orientation: Calcium assays in cells follow changes in intracellular calcium, usually with a dye or a luminescent sensor.

The next assay relates to male cynomolgus monkeys. Put plainly: Animal model of dysuria induced by intravesical infusion of ATP (singlecystometry). Format: in vivo, cynomolgus monkey. The following applies: ATP solution intravesical, compound A 0.1 mg/kg subcutaneous. The procedure:
After administration of ketamine hydrochloride anesthesia (15 to 20 mg/kg), male cynomolgus monkeys (11 years, 3 male (symbol “∘” in the FIG. 1 and FIG. 2 represents individual one.)) were fixed onto a stereotaxic operating table. The top of the bladder catheter was connected to a pressure transducer via a three-way stopcock, and intravesical pressure was recorded using a distortion amplifier and a recorder. The other end of the three-way stopcock were connected to a syringe for intravesical infusion to which an infusion pump was connected and a extension tube which satisfied physiological saline to remove residual urine from bladder.
The physiological saline was infused into the bladder at an infusion rate of 1.5 to 7.0 mL/min, and immediately after completion of voiding, the intravesical infusion was terminated and residual urine was removed (hereinafter, the above procedures is assumed singlecystometry.) and the procedures were repeated. […] Urinary flow rate (voided volume per voiding time (mL/sec)) and residual urine rate (residual urine volume per voided volume (%)) were calculated for each of the singlecystometry before ATP perfusion, after ATP perfusion and after ATP perfusion conducted after administration of the compound A. The results are shown in FIG. 1 and FIG. 2.

mouse EP1 receptor, sequence (P35375 whole entry): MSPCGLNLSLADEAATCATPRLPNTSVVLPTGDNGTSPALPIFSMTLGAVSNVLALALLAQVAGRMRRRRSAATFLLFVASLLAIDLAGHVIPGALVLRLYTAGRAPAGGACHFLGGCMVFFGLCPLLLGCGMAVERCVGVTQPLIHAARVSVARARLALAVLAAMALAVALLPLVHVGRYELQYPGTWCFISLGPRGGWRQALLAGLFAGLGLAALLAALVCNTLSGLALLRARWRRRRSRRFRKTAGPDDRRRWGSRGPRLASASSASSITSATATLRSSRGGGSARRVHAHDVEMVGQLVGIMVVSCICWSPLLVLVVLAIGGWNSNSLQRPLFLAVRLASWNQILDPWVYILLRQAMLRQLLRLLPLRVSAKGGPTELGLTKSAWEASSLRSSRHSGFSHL

As a reminder, the IC50 is the midpoint of a concentration-inhibition curve. With `Cc1cc(C(=O)O)ccc1COc1cc2c(cc1N(CC(C)C)S(=O)(=O)c1nccs1)CCC2` [Compound A, 3-methyl-4-[6-[N-isobutyl-N-(2-thiazolylsulfonyl)amino]indan-5-yloxymethyl]benzoic acid], the IC50 at mouse EP1 receptor came to 6.9 nM. Further, the “Urinary flow rate (voided volume per voiding time)” value in the assay on male cynomolgus monkeys (FIG. 1) is given as “recovered the urinary flow rate decreased by ATP”. For the same compound, in the assay on male cynomolgus monkeys (FIG. 2), the “Residual urine rate (residual urine volume per voided volume)” value was “decreased the residual urine rate”.

Consider `Cc1ccc(S(=O)(=O)N(CC(C)C)c2cc3c(cc2OCc2ccc(C=CC(=O)O)cc2)CCC3)o1` [Compound E, 4-[6-[N-isobutyl-N-(5-methyl-2-furylsulfonyl)amino]indan-5-yloxymethyl]cinnamic acid], for which, at mouse EP1 receptor, the IC50 stood at 21 nM.

For the compound `Cc1csc(S(=O)(=O)N(CC(C)C)c2ccc(C(F)(F)F)cc2OCc2ccc(C=CC(=O)O)cc2)n1` [Compound G, 4-[2-[N-isobutyl-N-(4-methyl-2-thiazolylsulfonyl)amino]-5-trifluoromethylphenoxymethyl]cinnamic acid], at mouse EP1 receptor, the 50% inhibitory concentration (IC50) worked out at 25 nM.

Turning to `Cc1csc(S(=O)(=O)N(c2cc(C)c(C)cc2OCc2ccc(-c3noc(=O)[nH]3)cc2)C(C)C)n1` [Compound L, N-[4,5-dimethyl-2-[4-(5-oxo-1,2,4-oxadiazol-3-yl)phenylmethyloxy]phenyl]-N-isopropyl-(4-methyl-2-thiazolyl)sulfonylamide], the IC50 at mouse EP1 receptor stood at 7.1 nM.

Turning to `Cc1cc(OCc2ccc(C=CC(=O)O)cc2C)c(N(CC(C)C)S(=O)(=O)c2cccnc2)cc1C` [Compound I, 3-methyl-4-[2-[N-isobutyl-N-(3-pyridylsulfonyl)amino]-4,5-dimethylphenoxymethyl]cinnamic acid], at mouse EP1 receptor, the concentration for half-maximal inhibition (IC50) worked out at 9.2 nM.

On to `Cc1cc(OCc2ccc(-c3nnn[nH]3)cc2Cl)c(N(C(C)C)S(=O)(=O)c2cccnc2)cc1C` [Compound K, N-[4,5-dimethyl-2-[2-chloro-4-(5-tetrazolyl)phenylmethyloxy]phenyl]-N-isopropyl-3-pyridylsulfonylamide], for which the IC50 on mouse EP1 receptor turned out to be 3.7 nM.

Turning to `Cc1csc(S(=O)(=O)N(c2cc(C)c(Cl)cc2OCc2ccc(-c3nnn[nH]3)cc2)C(C)C)n1` [Compound J, N-[4-chloro-5-methyl-2-[4-(5-tetrazolyl)phenylmethyloxy]phenyl]-N-isopropyl-(4-methyl-2-thiazolyl)sulfonylamide], at mouse EP1 receptor, the half-inhibitory concentration (IC50) was found to be 4.9 nM.
